Patent US20200071361A1, “ENGINEERED ANTIMICROBIAL AMPHIPHILIC PEPTIDES AND METHODS OF USE” (priority 2017, published 2020)
Converted amounts (≈) assume the structure as drawn. “And” between values parts separate entries of the source, which are not always exact repeats. Equal values may be shown once. Read-outs that look alike come from different tables or passages of the source. No end group written: not given here.

What was measured:
[1] = system: Enterococcus faecium isolates (n = 104); test: Broth microdilution MIC, clinical isolate panel; assay type: cell-based; settings: for % R (percent of isolates resistant, clinical breakpoints): Enterococcus faecium (n = 104)
Description: (§1) Comparator antibiotics were supplied by Micromyx, and stock solutions were prepared on the first day of testing using solvents recommended by CLSI (1). Stock solutions of all compounds were made at 40× the final testing concentration and stored at −80° C. prior to testing. Information regarding compound source, catalog and lot number, testing concentrations and drug diluent for the comparators and test agent are detailed below in Table 3.
(§2) The test organisms evaluated in this study consisted of clinical isolates from the Micromyx Repository and reference isolates from the American Type Culture Collection (ATCC; Manassas, Va.). The clinical isolates were obtained from USA hospitals. Upon initial receipt at Micromyx, the organisms were sub-cultured onto an appropriate agar medium. Following incubation, colonies were harvested from these plates and cell suspensions prepared and frozen at −80° C. with a cryoprotectant. Prior to testing, the isolates were streaked from frozen vials onto Trypticase Soy Agar with 5% sheep blood (Becton Dickenson [BD]; Sparks, Md.; Lot Nos. 7173618, 7166759, 7208688, 72144895, 7228505 and Remel Lenexa, Kans. Lot No. 212574). Plates were incubated at 35° C. overnight.
(§3) Mueller Hinton II broth (MHB II; BD; Lot Nos. 6258541 and 7143896) was used for MIC testing of aerobic organisms.
(§4) MIC values were determined using a broth microdilution procedure described by CLSI (1, 3). Automated liquid handlers (Multidrop 384, Labsystems, Helsinki, Finland; Biomek 2000 and Biomek FX, Beckman Coulter, Fullerton Calif.) were used to conduct serial dilutions and liquid transfers.
(§5) To prepare the drug mother plates, which would provide the serial drug dilutions for the replicate daughter plates, the wells of columns 2-12 of standard 96-well microdilution plates (Costar 3795) were filled with 150 μl of the designated diluent for each row of drug. The test articles and comparator compounds (300 μl at 40× the highest concentration to be tested) were dispensed into the appropriate wells in column 1. The Biomek 2000 was then used to make 2-fold serial dilutions in the mother plates from column 1 through column 11. The wells of Column 12 contained no drug and served as the organism growth control wells for the assay.
(§6) The daughter plates were loaded with 185 μL per well of MHB II using the Multidrop 384. The daughter plates were completed on the Biomek FX instrument which transferred 5 µL of drug solution from each well of a mother plate to the corresponding well of each daughter plate in a single step. A standardized inoculum of each test organism was prepared per CLSI methods (1). The inoculum for each organism was dispensed into sterile reservoirs divided by length (Beckman Coulter), and the Biomek 2000 was used to inoculate the plates. Daughter plates were placed on the Biomek 2000 work surface in reverse orientation so that inoculation took place from low to high drug concentration.
(§7) Plates were stacked 3-4 high, covered with a lid on the top plate, placed in plastic bags, and incubated at 35° C. for 16 to 20 hrs. Following incubation, the microplates were removed from the incubator and viewed from the bottom using a plate viewer. […] The MIC was read and recorded as the lowest concentration of drug that inhibited visible growth of the organism.
(§8) Clinical breakpoints to determine percent resistance within a given organism group were obtained from CLSI (3), with the exception of colistin for K. pneumoniae, Enterobacter spp., and E. coli, which are only available from EUCAST.

[2] = system: Staphylococcus aureus isolates (n = 104); test: Broth microdilution MIC, clinical isolate panel; assay type: cell-based; settings: for MIC: read-out: Mode (MIC)
Description: as §1, §2, §3, §4, §5, §6, §7, §8

[3] = system: Escherichia coli isolates (n = 101); test: Broth microdilution MIC, clinical isolate panel; assay type: cell-based; settings: Escherichia coli (n = 101)
Description: as §1, §2, §3, §4, §5, §6, §7, §8

[4] = system: Pseudomonas aeruginosa isolates (n = 109); test: Broth microdilution MIC, clinical isolate panel; assay type: cell-based; settings: Pseudomonas aeruginosa
Description: as §1, §2, §3, §4, §5, §6, §7, §8

[5] = system: Acinetobacter spp. isolates (n = 104); test: Broth microdilution MIC, clinical isolate panel; assay type: cell-based; settings: Acinetobacter spp. (n = 104)
Description: as §1, §2, §3, §4, §5, §6, §7, §8

[6] = system: Klebsiella pneumoniae isolates (n = 101); test: Broth microdilution MIC, clinical isolate panel; assay type: cell-based; settings: Klebsiella pneumoniae (n = 101)
Description: as §1, §2, §3, §4, §5, §6, §7, §8

[7] = for AUC(0-inf): AUCinf; for clearance: CL; for half-life: T 1/2, macaque; for Vd: Vss
Description: Animals will be obtained from the Test Facility's colony of adult male cynomolgous monkeys (Macaca fascicularis) of Chinese origin. Animals will be weighed prior to dosing.
Animals will be fasted a minimum of 2 hours prior to procedures requiring the administration of ketamine anesthesia. The diet will also be supplemented with other nutrients by feeding items such as raisins or fresh fruits that are presented to the animal as part of an environmental enrichment program. Offering items known to cause diarrhea will be avoided.
Intravenous administration will be via 30 minute infusion into a temporary percutaneous catheter placed into a saphenous vein. Prior to and following dose administration, the catheter will be flushed with 0.5 mL saline prior to removal. All dosing syringes will be weighed prior to and following dosing.
All animals will be observed at dosing and each scheduled collection. All abnormalities will be recorded.
Serial blood samples will be collected via femoral vein (cephalic or saphenous, as necessary). Approximately 1 mL blood samples will be collected into K2EDTA tubes.
Blood samples will be collected into K2EDTA tubes and stored on wet ice. Whole blood will be processed to plasma by centrifugation (2400-2700 rpm at 5° C.) within 30 minutes of collection. Plasma samples will be split into 2 equal aliquots and stored at −80° C. until analysis.
Administered doses will be determined gravimetrically.
Prior to extraction, a known concentration of a mass-adjusted internal standard (IS) will be added to assess recovery and allow for quantitation. Purified samples will be further subjected to high-performance liquid chromatography (HPLC) using C18 300 or 130 angstrom columns prior to MS/MS analysis. Multiple charge states will be observed by MS, so MS/MS will be employed to enable multiple reaction monitoring (MRM) analyses to determine the most MRM transitions with the highest signal-to-noise gain. Compound plasma concentrations will be determined by comparing to and compensating with co-purified IS peak intensity and validated calibrated standard curves.
Toxicokinetic parameters will be calculated using non-compartmental methods as implemented in the Phoenix® WinNonlin® ver. 6.3 comprehensive TK/PK analysis software program (Pharsight Corporation; Mountain View, Calif.) using an IV infusion model. Toxicokinetic analysis will be conducted using a 30-minute intravenous infusion time. Therefore, 30 minutes will be added to each sample time point postdose to obtain nominal time for TK analysis. Nominal times and dosage levels will be used for all calculations. Values below the lower limit of quantitation (BLQ) will be assigned a value of zero for the toxicokinetic calculations. Microsoft® Excel® 2013 will be used for receipt of bioanalytical data, minor formatting, including setting BLQ values to “0”, transfer into WinNonlin® for TK analysis, and calculation of the mean when an approximated value will be excluded. All plasma concentration data from all animals will be included in the analysis. Graphical presentations will be performed using Prism® for Macintosh ver. 7.0a (GraphPad, Inc.; La Jolla, Calif.).

[8] = mouse, in vivo, iv; for Vd: male CD-1 mice
Description: Male CD-1 mice will be received from an approved vendor and allowed to acclimate for a minimum of two days. Fasting will be not required.
All dosing syringes will be weighed prior to and following dosing. IV doses will be administered as a slow bolus (over ˜30 seconds) via direct venipuncture of a tail vein. All animals will be observed at dosing and each scheduled collection. All abnormalities will be recorded.
Terminal blood samples will be collected via cardiac puncture following inhalation anesthesia.
Sample Processing and Storage: Blood samples will be collected into K2EDTA tubes and stored on wet ice. Whole blood will be processed to plasma by centrifugation (3500 rpm at 5° C.) within 30 minutes of collection. Plasma samples will be split into 2 equal aliquots and each transferred into 96 well plates (matrix tubes) and stored at −80° C. until analysis. Administered doses will be determined gravimetrically.
Pharmacokinetic parameters will be calculated using non-compartmental methods as implemented in the Phoenix® WinNonlin® ver. 6.3 comprehensive TK/PK analysis software program (Pharsight Corporation; Mountain View, Calif.) using an IV infusion model. Pharmacokinetic analysis will be conducted using a 30-minute intravenous infusion time. Therefore, 30 minutes will be added to each sample time point postdose to obtain nominal time for TK analysis. Nominal times and dosage levels will be used for all calculations. Values below the lower limit of quantitation (BLQ) will be assigned a value of zero for the pharmacokinetic calculations. Microsoft® Excel® 2013 will be used for receipt of bioanalytical data, minor formatting, including setting BLQ values to “0”, transfer into WinNonlin® for PK analysis, and calculation of the mean when an approximated value will be excluded. All plasma concentration data from all animals will be included in the analysis. Graphical presentations will be performed using Microsoft® Excel® 2013.

[9] = Staphylococcus aureus (n = 104), all methicillin-resistant
[10] = cynomolgus monkey, in vivo, iv, 1 mg/kg, macaque, 1 mg/kg IV infusion, Mean
[11] = cynomolgus monkey, in vivo, iv, 3 mg/kg, macaque, 3 mg/kg IV infusion, Mean
[12] = cynomolgus monkey, in vivo, iv, 10 mg/kg, macaque, 10 mg/kg IV infusion, Mean

Compound: CC(=O)NC[C@H]1CN(c2ccc(N3CCOCC3)c(F)c2)C(=O)O1 [Linezolid]
- % R (percent of isolates resistant, clinical breakpoints) [1]: 3.8%
- MIC ([1]; Enterococcus faecium, read-out: Mode (MIC)): 2 µg/mL (≈ 5.93 µM)
- % R (percent of isolates resistant, clinical breakpoints) [2, 9]: 1.9%
- MIC90 [2, 9]: 2 µg/mL (≈ 5.93 µM)
- MIC [2, 9]: 2 µg/mL (≈ 5.93 µM)

Compound: CC(C)(O/N=C(\C(=O)N[C@@H]1C(=O)N2C(C(=O)[O-])=C(C[n+]3ccccc3)CS[C@H]12)c1csc(N)n1)C(=O)O [Ceftazidime]
- MIC50 [3]: 0.5 µg/mL (≈ 0.915 µM)
- MIC ([3]; read-out: Mode (MIC)): 0.25 µg/mL (≈ 0.457 µM)
- MIC50 [4]: 4 µg/mL (≈ 7.32 µM)
- MIC ([4]; read-out: Mode (MIC)): 2 µg/mL (≈ 3.66 µM)
- MIC50 [5]: > 32 µg/mL
- % R (percent of isolates resistant, clinical breakpoints) [6]: Over 80%
- MIC50 [6]: > 32 µg/mL

Compound: RRWVRRVRRVWRRVVRVVRRWVRR-NH2 [SEQ ID NO: 1]
- AUC(0-t) ([7]; cynomolgus monkey, in vivo, iv, 1 mg/kg, AUC0-24hr, macaque, 1 mg/kg IV infusion, Mean): 1090 ng·h/mL
- AUC(0-inf) [7, 10]: 1170 ng·h/mL
- AUC(0-t) ([7]; cynomolgus monkey, in vivo, iv, 1 mg/kg, AUClast, macaque, 1 mg/kg IV infusion, Mean): 983 ng·h/mL
- clearance [7, 10]: 18.5 mL/min/kg
- Cmax [7, 10]: 1710 ng/mL
- half-life ([7]; cynomolgus monkey, in vivo, iv, 1 mg/kg, 1 mg/kg IV infusion, Mean): 2 h
- Vd [7, 10]: 1.38 L/kg
- Vd ([7]; cynomolgus monkey, in vivo, iv, 1 mg/kg, macaque, 1 mg/kg IV infusion, individual monkey): 1.53 L/kg
- AUC(0-t) ([7]; cynomolgus monkey, in vivo, iv, 3 mg/kg, AUC0-24hr, macaque, 3 mg/kg IV infusion, Mean): 7580 ng·h/mL
- AUC(0-inf) [7, 11]: 7710 ng·h/mL
- AUC(0-t) ([7]; cynomolgus monkey, in vivo, iv, 3 mg/kg, AUClast, macaque, 3 mg/kg IV infusion, Mean): 7580 ng·h/mL
- clearance [7, 11]: 7.18 mL/min/kg
- Cmax [7, 11]: 10300 ng/mL
- half-life ([7]; cynomolgus monkey, in vivo, iv, 3 mg/kg, 3 mg/kg IV infusion, Mean): 5.2 h
- half-life ([7]; cynomolgus monkey, in vivo, iv, 3 mg/kg, 3 mg/kg IV infusion, individual monkey): 4.4 h
- Tmax ([7]; cynomolgus monkey, in vivo, iv, 3 mg/kg, Tmax, macaque, 3 mg/kg IV infusion, Mean): 6.6 min
- Vd [7, 11]: 1.29 L/kg
- Vd ([7]; cynomolgus monkey, in vivo, iv, 3 mg/kg, macaque, 3 mg/kg IV infusion, individual monkey): 1.58 L/kg
- AUC(0-t) ([7]; cynomolgus monkey, in vivo, iv, 10 mg/kg, AUC0-24hr, macaque, 10 mg/kg IV infusion, Mean): 50300 ng·h/mL
- AUC(0-inf) [7, 12]: 50800 ng·h/mL
- AUC(0-t) ([7]; cynomolgus monkey, in vivo, iv, 10 mg/kg, AUClast, macaque, 10 mg/kg IV infusion, Mean): 50300 ng·h/mL
- clearance [7, 12]: 6.32 mL/min/kg
- Cmax [7, 12]: 38200 ng/mL
- half-life ([7]; cynomolgus monkey, in vivo, iv, 10 mg/kg, 10 mg/kg IV infusion, Mean): 4.6 h
- half-life ([7]; cynomolgus monkey, in vivo, iv, 10 mg/kg, 10 mg/kg IV infusion, individual monkey): 4.3 h
- Vd [7, 12]: 1.26 L/kg
- T 1/2 ([7]; macaque, 3 mg/kg IV infusion, individual monkey, 3 mg/kg): 6.3 h and 5 h
- T 1/2 ([7]; macaque, 10 mg/kg IV infusion, individual monkey, 10 mg/kg): 4.9 h and 4.6 h
- AUC(0-inf) ([8]; 3 mg/kg): < 3500 ng·h/mL
- C0 ([8]; 3 mg/kg): 26000 ng/mL
- Cmax ([8]; 3 mg/kg): 16600 ng/mL
- MRT last ([8]; 3 mg/kg): ~0.5 h
- Tmax ([8]; 3 mg/kg): 0.303 h
- clearance ([8]; 3 mg/kg): ~5 mL/min/kg
- half-life ([8]; 3 mg/kg): ~8 h
- Vd ([8]; 3 mg/kg, Vss, 3 mg/kg IV): ~0.2 L/kg
- Vd ([8]; 3 mg/kg, Vz, 3 mg/kg IV): ~3 L/kg
- AUC(0-inf) ([8]; 15 mg/kg): 53800 ng·h/mL
- AUC(0-t) ([8]; 15 mg/kg): 53600 ng·h/mL
- C0 ([8]; 15 mg/kg): 192000 ng/mL
- Cmax ([8]; 15 mg/kg): 163000 ng/mL
- MRT last ([8]; 15 mg/kg): 0.579 h
- clearance ([8]; 15 mg/kg): 4.65 mL/min/kg
- half-life ([8]; 15 mg/kg): 7.45 h
- Vd ([8]; 15 mg/kg, Vss, 15 mg/kg IV): 0.208 L/kg
- Vd ([8]; 15 mg/kg, Vz, 15 mg/kg IV): 3 L/kg

Compound: CCC[C@@H]1C[C@@H](C(=O)N[C@@H]([C@H]2O[C@H](SC)[C@H](O)[C@@H](O)[C@H]2O)[C@H](C)Cl)N(C)C1 [Clindamycin]
- MIC50 [2, 9]: 0.12 µg/mL (≈ 0.282 µM)

Compound: C[C@H]1c2cccc(O)c2C(=O)C2=C(O)[C@]3(O)C(=O)C(C(N)=O)=C(O)[C@@H](N(C)C)[C@@H]3[C@@H](O)[C@@H]21 [Doxycycline]
- % R (percent of isolates resistant, clinical breakpoints) [2, 9]: 0%
- MIC50 [2, 9]: 0.12 µg/mL (≈ 0.27 µM)
- MIC90 [2, 9]: 1 µg/mL (≈ 2.25 µM)

Compound: CN[C@H](CC(C)C)C(=O)N[C@H]1C(=O)N[C@@H](CC(N)=O)C(=O)N[C@H]2C(=O)N[C@H]3C(=O)N[C@H](C(=O)N[C@H](C(=O)O)c4cc(O)cc(O)c4-c4cc3ccc4O)[C@H](O)c3ccc(c(Cl)c3)Oc3cc2cc(c3O[C@@H]2O[C@H](CO)[C@@H](O)[C@H](O)[C@H]2O[C@H]2C[C@](C)(N)[C@H](O)[C@H](C)O2)Oc2ccc(cc2Cl)[C@H]1O [Vancomycin]
- % R (percent of isolates resistant, clinical breakpoints) [1]: 47.1%
- % R (percent of isolates resistant, clinical breakpoints) [2, 9]: 0%
- MIC ([2]; Staphylococcus aureus): 1 µg/mL (≈ 0.69 µM)
